As a reminder, the IC50 is the concentration at which inhibition is half-maximal. The low end stands for higher potency, the high end for lower potency. As usually defined, the Kd is the free concentration of one partner at which half of the binding sites on the other are occupied at equilibrium, for simple one-to-one binding.

The source of these data is ChEMBL document CHEMBL3046324, “Molecular recognition of long chain fatty acids by peroxisome proliferator-activated receptor” (Med Chem Res, 2009).

A value given as a limit tells only on which side of the number the result lay.

For experiment [1], the target named is T1, Peroxisome proliferator-activated receptor alpha (Homo sapiens, UniProt Q07869).
T1 sequence (Q07869 whole entry): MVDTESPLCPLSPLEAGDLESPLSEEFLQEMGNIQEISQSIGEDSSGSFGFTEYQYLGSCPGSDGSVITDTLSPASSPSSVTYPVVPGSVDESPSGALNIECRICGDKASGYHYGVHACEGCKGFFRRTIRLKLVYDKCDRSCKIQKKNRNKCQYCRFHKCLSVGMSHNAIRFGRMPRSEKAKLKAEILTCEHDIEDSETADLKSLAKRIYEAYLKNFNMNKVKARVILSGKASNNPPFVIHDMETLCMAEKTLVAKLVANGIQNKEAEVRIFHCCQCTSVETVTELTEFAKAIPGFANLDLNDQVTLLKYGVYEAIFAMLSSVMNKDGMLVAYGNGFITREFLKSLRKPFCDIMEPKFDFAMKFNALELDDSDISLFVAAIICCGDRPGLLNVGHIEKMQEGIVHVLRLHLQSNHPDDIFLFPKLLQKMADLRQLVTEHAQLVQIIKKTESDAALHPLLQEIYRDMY
Briefly: Inhibition of PPAR-alpha (unknown origin) by SPA assay.

For experiment [2], the target named is T1, Peroxisome proliferator-activated receptor alpha. Briefly: Binding affinity to PPAR-alpha (unknown origin) by fluorescence-based assay.

`CCCCC/C=C\C/C=C\C/C=C\C/C=C\CCCC(=O)O` [ARACHIDONIC ACID] had an IC50 in experiment [1] of 1.2 µM.

As to `CCCCC/C=C\C/C=C\C/C=C\CCCCCCC(=O)O` [DIHOMO-GAMMA-LINOLENIC ACID], the IC50 in experiment [1] was found to be 1.4 µM.

Consider `CCCCCCCC/C=C\CCCCCCCCCCCC(=O)O` [ERUCIC ACID], for which the half-inhibitory concentration (IC50) in experiment [1] was > 30 µM.

Consider `CCCCC/C=C\C/C=C\C/C=C\CCCCC(=O)O` [GAMOLENIC ACID], for which inhibition in experiment [1] was half-maximal at 0.27 µM (IC50).

In experiment [1], `CC/C=C\C/C=C\C/C=C\C/C=C\C/C=C\CCCC(=O)O` [ICOSAPENT] registered a half-inhibitory concentration (IC50) of 1.1 µM.

Turning to `CCCCC/C=C\C/C=C\CCCCCCCC(=O)O` [LINOLEIC ACID], in experiment [1], the IC50 was found to be 1.1 µM. The same compound came in with an equilibrium dissociation constant (Kd) in experiment [2] of 0.0048 µM.

The compound `CC/C=C\C/C=C\C/C=C\CCCCCCCC(=O)O` [LINOLENIC ACID] displayed an IC50 in experiment [1] of 1.2 µM. Besides, in experiment [2], binding was put at a Kd of 0.0079 µM.

`CCCCCCCC/C=C\CCCCCCCC(=O)O` [OLEIC ACID] came in with an IC50 in experiment [1] of 0.6 µM.

In experiment [1], `CCCCCC/C=C\CCCCCCCC(=O)O` [PALMITOLEIC ACID] came in with an IC50 of 1.7 µM.
